According to US20250066346A1, “SOLID FORMS OF A BENZTHIAZOLE-PIPERAZINYL-OXAZOLE COMPOUND AND METHODS OF USE THEREOF” (Hepagene Therapeutics (HK) Limited, priority 2022, published 2025):
≈ marks a conversion by molar mass, not a printed value.

Legend:
Type in all cases: physicochemical
[1] = Hygroscopicity by dynamic vapor sorption (DVS) at 25° C.
Procedure: DVS was measured via a SMS (Surface Measurement Systems) DVS Intrinsic. The relative humidity at 25° C. was calibrated against deliquescence point of LiCl, Mg(NO3)2 and KCl.

[2] = Kinetic solubility in water and bio-relevant media (SGF, FaSSIF, FeSSIF) at 37° C.; parameters: key to FC: form change: Yes: form changed; No: form not changed; settings: for pH: filtered supernatant
Procedure: Agilent 1260 HPLC was utilized and detailed chromatographic conditions are provided in Tables 3 and 4 for purity and solubility test, respectively.
About 20 mg of free base (form A) HCl salt (form B), and HBr salt (form D) were added to a 5-mL glass vials followed by the addition of 4 mL of the corresponding medium/solvent into each glass vial to form a suspension. The vials were capped and rolled at 37° C. (25 rpm). Samples were removed (1 mL) at 1 h, 4 h, and 24 h and centrifuged (14000 rpm, 2 min, room temperature). The supernatant was filtered through 0.22 μm syringe filter (first few drops of filtrate were discarded) for HPLC solubility and pH tests (Table 15). The residual solids were analyzed by XRPD.

[3] = Approximate solubility of Form A in solvents at room temperature (stepwise solvent addition, visual); settings: organic solvent or mixture, thermodynamic from solid
Procedure: Approximately 2 mg of Form A of Compound I was added into a 3-mL glass vial. At room temperature, the solvents in Table 8 were then added stepwise into the vials until the solids were dissolved visually or a total volume of 2 mL was reached.

[4] = Solid state stability (XRPD for physical stability, HPLC purity for chemical stability); settings: for Purity/initial purity: HPLC; for Form change: XRPD
Excerpt: All the samples were characterized by XRPD for physical stability and HPLC purity for chemical stability evaluation (Table 16).

[5] = Form conversion by variable-temperature XRPD (VT-XRPD)
Procedure: […] 22.
Based on data above, it would convert to dehydrate state (HCl salt Form C) at low humidity and back to hydrate at high humidity.
HBr salt Form E was observed after N2 purging HBr salt Form D for 20 min at 30° C. via variable-temperature XRPD (VT-XRPD) shown in FIG. 23.
Based on data above, it would convert to dehydrate state (HBr salt Form E) at low humidity and back to hydrate at high humidity.

For `COc1cc(C(=O)O)cc2sc(N3CCN(Cc4c(-c5c(Cl)cccc5Cl)noc4C4CC4)C[C@H]3C)nc12` [Form A, (R)-2-(4-((5-cyclopropyl-3-(2,6-dichlorophenyl)isoxazol-4-yl)methyl)-2-methylpiperazin-1-yl)-4-methoxybenzo[d]thiazole-6-carboxylic acid], the “hygroscopicity (in words)” value ([1]; DVS) was “non-hygroscopic”, the water uptake ([1]; at 80% RH) was 0.15% and the “FC: form change” value ([2]; FaSSIF, 1 hr) was “No”. The “S: solubility” value ([2]; FaSSIF, 1 hr) was 16 µg/mL, the pH ([2]; FaSSIF, 1 hr) was 6.4 and the “FC: form change” value ([2]; FaSSIF, 4 hrs) was “No”. The “S: solubility” value ([2]; FaSSIF, 4 hrs) was 17 µg/mL, the pH ([2]; FaSSIF, 4 hrs) was 6.5 and the “FC: form change” value ([2]; FaSSIF, 24 hrs) was “No”. The “S: solubility” value ([2]; FaSSIF, 24 hrs) was 22 µg/mL, the pH ([2]; FaSSIF, 24 hrs) was 6.4 and the “FC: form change” value ([2]; FeSSIF, 1 hr) was “No”. For the same molecule, the “S: solubility” value ([2]; FeSSIF, 1 hr) was 51 µg/mL, the pH ([2]; FeSSIF, 1 hr) was 5.0 and the “FC: form change” value ([2]; FeSSIF, 4 hrs) was “No”. For the same molecule, the “S: solubility” value ([2]; FeSSIF, 4 hrs) was 56 µg/mL, the pH ([2]; FeSSIF, 4 hrs) was 5.1 and the “FC: form change” value ([2]; FeSSIF, 24 hrs) was “No”. For the same molecule, the “S: solubility” value ([2]; FeSSIF, 24 hrs) was 56 µg/mL, the pH ([2]; FeSSIF, 24 hrs) was 5.1 and the “FC: form change” value ([2]; H2O, 1 hr) was “No”. The “S: solubility” value ([2]; H2O, 1 hr) was 3 µg/mL, the pH ([2]; H2O, 1 hr) was 6.2 and the “FC: form change” value ([2]; H2O, 4 hrs) was “No”. The “S: solubility” value ([2]; H2O, 4 hrs) was 2.3 µg/mL, the pH ([2]; H2O, 4 hrs) was 6.3 and the “FC: form change” value ([2]; H2O, 24 hrs) was “No”. For the same molecule, the “S: solubility” value ([2]; H2O, 24 hrs) was 4.6 µg/mL, the pH ([2]; H2O, 24 hrs) was 6.4 and the “FC: form change” value ([2]; SGF, 1 hr) was “No”. The “S: solubility” value ([2]; SGF, 1 hr) was 20 µg/mL, the pH ([2]; SGF, 1 hr) was 2.1 and the “FC: form change” value ([2]; SGF, 4 hrs) was “No”. The “S: solubility” value ([2]; SGF, 4 hrs) was 18 µg/mL, the pH ([2]; SGF, 4 hrs) was 1.8 and the “FC: form change” value ([2]; SGF, 24 hrs) was “No”. For the same molecule, the “S: solubility” value ([2]; SGF, 24 hrs) was 17 µg/mL, the pH ([2]; SGF, 24 hrs) was 2.0 and the solubility ([2]; water, 37 °C, thermodynamic from solid, text summary of Table 15) was under 7 µg/mL. The solubility ([3]; 2-MeTHF) was over 40000 µg/mL, the solubility ([3]; ACN) was 4800 to 9500 µg/mL (≈ 8.37 to 16.6 mM) and the solubility ([3]; Acetone) was over 42000 µg/mL. It also gave a solubility ([3]; CPME) of 11500 to 23000 µg/mL (≈ 20.1 to 40.1 mM), a solubility ([3]; CPME/n-heptane (2:1)) of 2300 to 4600 µg/mL (≈ 4.01 to 8.02 mM) and a solubility ([3]; EtOAc) of 10000 to 20000 µg/mL (≈ 17.4 to 34.9 mM). For the same molecule, the solubility ([3]; IPAc) was 3800 to 6300 µg/mL (≈ 6.63 to 11 mM), the solubility ([3]; MIBK) was 10000 to 20000 µg/mL (≈ 17.4 to 34.9 mM) and the solubility ([3]; MIBK/n-heptane (2:1)) was 4200 to 7000 µg/mL (≈ 7.32 to 12.2 mM). For the same molecule, the solubility ([3]; MeOH) was 10500 to 21000 µg/mL (≈ 18.3 to 36.6 mM), the solubility ([3]; MeOH/H2O (9:1)) was 5300 to 10500 µg/mL (≈ 9.24 to 18.3 mM) and the solubility ([3]; THF) was over 40000 µg/mL. For the same molecule, the solubility ([3]; THF/n-heptane (2:1)) was over 38000 µg/mL, the Purity/initial purity ([4]; 25° C./60% RH/1 week) was 100.0% and the Form change ([4]; 25° C./60% RH/1 week) was “No”. For the same molecule, the Purity/initial purity ([4]; 40° C./75% RH/1 week) was 99.9%, the Form change ([4]; 40° C./75% RH/1 week) was “No” and the “solid state stability (overall, in words)” value ([4]; 80° C./1 day, 25° C./60% RH/1 week, 40° C./75% RH/1 week) was “good solid state stability”. For the same molecule, the Purity/initial purity ([4]; 80° C./1 day) was 99.8% and the Form change ([4]; 80° C./1 day) was “No”.
In the case of `COc1cc(C(=O)O)cc2sc(N3CCN(Cc4c(-c5c(Cl)cccc5Cl)noc4C4CC4)C[C@H]3C)nc12` [Form C, (R)-2-(4-((5-cyclopropyl-3-(2,6-dichlorophenyl)isoxazol-4-yl)methyl)-2-methylpiperazin-1-yl)-4-methoxybenzo[d]thiazole-6-carboxylic acid], the “form after exposing to ambient conditions” value ([5]; ambient conditions for about 10 min) is reported as “HCl salt Form B was re-obtained” and the “form change after heating to 120° C. and cooling to 30° C.” value ([5]; with N2 protection, VT-XRPD) is reported as “no form change occurred”.
